According to publication PMC11478334, “Quaternized Curcumin Derivative—Synthesis, Physicochemical Characteristics, and Photocytotoxicity, Including Antibacterial Activity after Irradiation with Blue Light” (Molecules, 2024):
Where “and” joins values, the source holds several entries; their conditions need not be identical. Identical values can stand only once.

What was measured:
[1] = system: Candida albicans ATCC 10231; assay: In vitro photodynamic inactivation of planktonic cells, 470 nm LED; type: cell-based; conditions: 10 µM
Protocol: (§1) In the first experiment, the main goal was to determine whether the tested compounds were antimicrobially active with or without light. Two compounds (2 and 3) were tested in the visible range, and a 470 nm LED lamp was applied (Figure 11). Due to poor solubility and low absorption, curcumin was not included in the tests. A screening study was carried out on three strains: Gram-positive bacteria—Staphylococcus aureus NCTC 4163, Gram-negative bacteria—Escherichia coli ATCC 25922, and the yeast Candida albicans ATCC 10231. In the study, the irradiation lasted 30 min, and the lamp was placed 10 mm above the microtiter plate containing the bacterial suspensions and tested compounds at concentrations of 10 μM. The preincubation time (PIT) lasted 20 min, and the LED lamp emitted visible light (λmax 470 nm) with an irradiance of 16.67 mW/cm^2, which corresponds to a light dose (fluence) of 30.01 J/cm^2 after 30 min of exposure. The light exposure conditions (lamp distance, lamp power, and lamp type) were the same in all subsequent experiments. The light dose depended on the irradiation time. […] Compound 3 presented activity against both G+ (S. aureus) and G− (E. coli) bacteria. The light-induced antimicrobial activity against S. aureus and E.coli exceeded log reductions of 5.54 and 4.46, respectively. At these concentrations, not even a single colony was observed on the plates, as complete eradication occurred.
The microorganisms used in the study were (i) standard strains of bacteria: Staphylococcus aureus NCTC 4163, Escherichia coli ATCC 25922, Pseudomonas aeruginosa NCTC 6749, and Streptococcus […] ATCC 19615, and (ii) fungi: Candida albicans ATCC 10231. The standard strains were obtained from the National Collection of Type Cultures (NCTC, Salisbury, UK) and the American Type Culture Collection (ATCC, Manassas, VA, USA). […]
The organisms were harvested by centrifugation (3000× g for 15 min) and resuspended in 1.5 mL of 10 mM PBS, pH, 7.0 (Sigma-Aldrich, St. Louis, MO, USA). […] Viable microorganisms were measured by counting the number of colony-forming units (CFUs) after appropriate serial dilution and culture on tryptic soy agar plates (TSA, OXOID, Basingstoke, UK) or Columbia Blood Agar with Sheep Blood (CAS, OXOID, Basingstoke, UK) for bacteria and Sabouraud dextrose agar (SDA, Merck, Steinheim, Germany) for fungi, following incubation at 36 °C ± 1 °C for 24–72 h. The number of surviving organisms and the log10 reduction in microbial cells for each sample were calculated using a formula available in the literature.
(§2) Lamp type—LED λmax~470 nm (LIU470A LED Array Light Source; Thorlabs Inc., Bergkirchen, Germany); irradiance—16.67 mW/cm^2 (measured with PM16-130 Power Meter, Thorlabs Inc., Bergkirchen, Germany, and Optel Opole Sp. z o.o., Opole, Poland).

[2] = system: Staphylococcus aureus NCTC 4163; assay: as above; type: cell-based
Protocol: as §1
(§3) The second experiment was designed to determine the time and concentration required to achieve the biological effect observed in the first experiment and to extend the study to other strains (Figure 12). Apart from S. aureus and E. coli, the Gram-positive Streptococcus pyogenes ATCC 19615, which is the etiologic agent of tonsillitis, and the Gram-negative Pseudomonas aeruginosa NCTC 6749, which is a major threat to hospitalized and immunocompromised patients due to its high antibiotic resistance, were used. The observed effect was strictly concentration-dependent (Table 6). According to the results, Gram-positive bacteria appear to be the most susceptible to the applied photocytotoxicity study. […] For S. pyogenes, the results were even more pronounced, as the complete eradication under the influence of compound 3 at a concentration of 10 µM occurred after only 5 min of irradiation, while at a concentration of 1 µM, complete eradication occurred after 15 min of irradiation. Interesting results were also obtained for Gram-negative bacteria. […] A high level of eradication of P. aeruginosa in the presence of compound 3 (10 µM) was observed after only 5 min of irradiation (log reduction: 4.29). […] Reductions in microbial survival were still observed with a decrease in compound concentration, but complete eradication was not achieved within the irradiation time.
(§4) The microorganisms used in the study were (i) standard strains of bacteria: Staphylococcus aureus NCTC 4163, Escherichia coli ATCC 25922, Pseudomonas aeruginosa NCTC 6749, and Streptococcus […] ATCC 19615, and (ii) fungi: Candida albicans ATCC 10231. The standard strains were obtained from the National Collection of Type Cultures (NCTC, Salisbury, UK) and the American Type Culture Collection (ATCC, Manassas, VA, USA). Bacterial and yeast strains were stored in Microbank cryogenic vials (Pro-Lab Diagnostics, Richmond Hill, ON, Canada) at −70 °C ± 10 °C. The bacteria were cultured aerobically in brain–heart infusion (BHI) broth (OXOID, Basingstoke, UK) at 36 °C ± 1 °C for 20 h. C. albicans cultures were grown in Sabouraud dextrose broth (SDB, Merck, Steinheim, Germany) at 36 °C for 20 h.
(§5) The organisms were harvested by centrifugation (3000× g for 15 min) and resuspended in 1.5 mL of 10 mM PBS, pH, 7.0 (Sigma-Aldrich, St. Louis, MO, USA). The cells were then diluted 1/100 in PBS to a final concentration of about 10^7 colony-forming units (CFUs)/mL. […]

[3] = system: Escherichia coli ATCC 25922; assay: as above; type: cell-based
Protocol: as §1, §3, §4, §5

C. albicans = system: C. albicans; design: method as in PMID 22934533; conditions: 80 µM curcumin, 37.5 J/cm^2; mouse model of oral candidiasis; cited from earlier work
[4] = system: WM266-4 melanoma cell line; design: method as in Siwak et al. 49; conditions: after 96 h of incubation; ref Siwak et al. 49; cited from earlier work
[5] = system: Streptococcus pyogenes ATCC 19615; assay: In vitro photodynamic inactivation of planktonic cells, 470 nm LED; type: cell-based; conditions: for irradiation time to complete eradication: 470 nm LED
Text: as §3, §4
The organisms were harvested by centrifugation (3000× g for 15 min) and resuspended in 1.5 mL of 10 mM PBS, pH, 7.0 (Sigma-Aldrich, St. Louis, MO, USA). The cells were then diluted 1/100 in PBS to a final concentration of about 10^7 colony-forming units (CFUs)/mL. Aliquots (100 μL) of a standardized microbial suspension were placed in the wells of microtiter plates, and an equal volume of a solution of the tested compound was added to give final concentrations of 1 × 10^−5 (10 µM) and 1 × 10^−6 M (1 µM) (groups P+). Negative control wells contained the bacterial or yeast suspension and PBS without the photosensitizer (groups P−). All the samples were incubated in the dark for 20 min and irradiated by the LED panel at a distance of 10 mm for a specific period, depending on the experiment (groups L+). To evaluate the antimicrobial activity of the tested compounds, duplicate experimental samples were prepared but not irradiated (groups L−). Viable microorganisms were measured by counting the number of colony-forming units (CFUs) after appropriate serial dilution and culture on tryptic soy agar plates (TSA, OXOID, Basingstoke, UK) or Columbia Blood Agar with Sheep Blood (CAS, OXOID, Basingstoke, UK) for bacteria and Sabouraud dextrose agar (SDA, Merck, Steinheim, Germany) for fungi, following incubation at 36 °C ± 1 °C for 24–72 h. The number of surviving organisms and the log10 reduction in microbial cells for each sample were calculated using a formula available in the literature.
as §2

[6] = L+P+, 470 nm, 30 min, 30.01 J/cm^2
[7] = L+P+, 10 µM, 470 nm, 30 min, 30.01 J/cm^2
[8] = 1 µM, 10 min irradiation 470 nm
[9] = 1 µM, 15 min irradiation 470 nm
[10] = 10 µM, 5 min irradiation 470 nm (5 J/cm^2)
[11] = 10 µM, 15 min irradiation 470 nm (15 J/cm^2)

## F[B-]1(F)OC(/C=C/c2ccc(OCCN3CCOCC3)cc2)=CC(/C=C/c2ccc(OCCN3CCOCC3)cc2)=[O+]1 [Compound 2]
[1]; [6]
  Log10 reduction: 0.01 log
[1]; L−P+ (no light)
  Log10 reduction: 0.04 log
[2]; [7]
  Log10 reduction: 2.13 log
[2]; L−P+ (no light), 10 µM
  Log10 reduction: 0.05 log
[3]; L−P+ (no light), 10 µM
  Log10 reduction: 0.52 log

## Curcumin [reference compound]
C. albicans
  reduction in the survival of C. albicans: 4 log
[4]
  IC50: ~7 µM

## C[N+]1(CCOc2ccc(C=CC3=CC(C=Cc4ccc(OCC[N+]5(C)CCOCC5)cc4)=[O+][B-](F)(F)O3)cc2)CCOCC1 [Compound 3]
[1]; [6]
  Log10 reduction: −0.04 log
[1]; L−P+ (no light)
  Log10 reduction: −0.09 log
[2]; 1 µM, 5 min irradiation 470 nm
  Log Red.: −0.01 log
[2]; [8]
  Log Red.: 0.77 log
[2]; [9]
  Log Red.: 1.01 log
[2]; 1 µM, 20 min irradiation 470 nm
  Log Red.: 1.42 log
[2]; [10]
  Log Red.: 3.37 log
[2]; 10 µM, 470 nm LED
  irradiation time to complete eradication: 15 min
[2]; 10 µM, 10 min irradiation 470 nm
  Log Red.: 4.09 log
[2]; [11]
  Log Red.: >5.40 log and >5.4 log
[2]; [7]
  Log10 reduction: >5.54 log
[2]; L−P+ (no light), 10 µM
  Log10 reduction: −0.01 log
[3]; 1 µM, 5 min irradiation 470 nm
  Log Red.: 0.83 log
[3]; 1 µM, 470 nm LED
  biological activity after irradiation: no biological activity
[3]; [9]
  Log Red.: 1.57 log
[3]; 1 µM, 25 min irradiation 470 nm
  Log Red.: 1.82 log
[3]; 10 µM, 5 min irradiation 470 nm
  Log Red.: 1.15 log
[3]; [11]
  Log Red.: 3.08 log
[3]; 10 µM, 25 min irradiation 470 nm (25 J/cm^2)
  Log Red.: 4.53 log
[3]; [7]
  Log10 reduction: >4.46 log
[3]; L−P+ (no light), 10 µM
  Log10 reduction: 0.58 log
[5]; 1 µM, 5 min irradiation 470 nm (5 J/cm^2)
  Log Red.: 3.03 log
[5]; 1 µM
  irradiation time to complete eradication: 15 min
[5]; [8]
  Log Red.: 4.51 log
[5]; [9]
  Log Red.: >4.93 log
[5]; [10]
  Log Red.: >4.93 log
[5]; 10 µM
  irradiation time to complete eradication: 5 min
